# Source: patent publication EP1561465A2, “Methods of use of fluoroquinolone compounds against bacteria” (LG Life Sciences, Ltd., priority 1999, dated 2001)
# Read-outs that look alike come from different tables or passages of the source.
# Experiments:
# Format in all cases: cell-based
# Klebsiella pneumoniae [1] = test: MIC by NCCLS broth microdilution, 1100 Japanese clinical isolates 1997-1998; settings: Klebsiella pneumoniae (n=35)
# Providencia rettgeri = test: as above
# Streptococcus pneumoniae = test: MIC by two-fold serial agar dilution, Sensitivity Disk agar-N (Kitasato isolates); settings: for MIC90: read-out: MIC90; for MIC: read-out: MIC Range
# Proteus vulgaris = test: MIC by NCCLS broth microdilution, 1100 Japanese clinical isolates 1997-1998
# Enterococcus gallinarum = test: as above; settings: Enterococcus gallinarum, GALLINARUM
# E. coli = test: microbe, parasite or virus in culture; settings: Escherichia coli
# Enterobacter aerogenes = test: MIC by NCCLS broth microdilution, 1100 Japanese clinical isolates 1997-1998; settings: Enterobacter aerogenes (n=35)
# Morganella morganii = test: as above; settings: Morganella morganii (n=40)
# Enterococcus faecalis = test: as above; settings: for MIC50 / MIC90: Enterococcus faecalis; for MIC90: read-out: MIC90
# Proteus mirabilis [2] = test: as above; settings: Proteus mirabilis (n=30)
# Klebsiella oxytoca = test: as above; settings: Klebsiella oxytoca (n=40)
# Shigella spp. = test: as above; settings: Shigella spp. (n=34)
# Citrobacter freundii = test: as above
# Yersinia enterocolitica = test: MIC by agar dilution (NCCLS M7-A4), 288 enteropathogenic isolates, gemifloxacin and 15 other antimicrobials; settings: Yersinia enterocolitica N= 22
# [3] = tested on: Streptococcus pneumoniae and Haemophilus influenzae; test: MIC by broth microdilution (NCCLS), all isolates pooled
# Escherichia coli = test: MIC by agar dilution (NCCLS), 322 nosocomial Gram negative isolates, Athens 1998; settings: Escherichia coli; n = 57 isolates
# Proteus mirabilis [4] = test: as above; settings: Proteus mirabilis; n = 57 isolates
# Aeromonas spp. = test: MIC by agar dilution (NCCLS M7-A4), 288 enteropathogenic isolates, gemifloxacin and 15 other antimicrobials; settings: Aeromonas spp. N= 16
# Klebsiella pneumoniae [5] = test: MIC by agar dilution (NCCLS), 322 nosocomial Gram negative isolates, Athens 1998; settings: n = 56 isolates
# Salmonella spp. = test: MIC by agar dilution (NCCLS M7-A4), 288 enteropathogenic isolates, gemifloxacin and 15 other antimicrobials
# Hafnia alvei = test: as above; settings: Hafnia alvei N= 32
# [6] = Enterococcus faecalis ciprofloxacin susceptible (n=24)
# [7] = Enterococcus faecalis ciprofloxacin resistant (n=15)
# [8] = 24 h, read-out: MIC (mg/L) Range
structure (smiles),measurement,setting,value
"NC1CCN(c2nc3c(cc2F)c(=O)c(C(=O)O)cn3-c2ccc(F)cc2F)C1 (stereo not drawn) [Tosufloxacin, tosufloxacin]",MIC50,Klebsiella pneumoniae [1],0.032 µg/mL
same,MIC Range,Klebsiella pneumoniae [1],0.016 to 2 µg/mL
same,MIC90,Klebsiella pneumoniae [1]; read-out: MIC90,0.063 µg/mL
same,MIC50,Providencia rettgeri; Providencia rettgeri,0.125 µg/mL
same,MIC90,Providencia rettgeri; Providencia rettgeri (n=12),8 µg/mL
same,MIC Range,Providencia rettgeri; Providencia rettgeri (n=12),0.063 to 8 µg/mL
same,MIC50,Streptococcus pneumoniae; Ciprofloxacin-susceptible (94),0.125 µg/mL
same,MIC50,Streptococcus pneumoniae; Erythromycin-resistant (37),0.125 µg/mL
same,MIC50,Streptococcus pneumoniae; Minocycline-resistant (37),0.125 µg/mL
same,MIC50,Streptococcus pneumoniae; Streptococcus pneumoniae,0.125 µg/mL
same,MIC90,"Streptococcus pneumoniae; Streptococcus pneumoniae, 18 h, Ciprofloxacin-resistant (21), ciprofloxacin MIC ≥8 µg/ml",8 µg/mL
same,MIC,"Streptococcus pneumoniae; Streptococcus pneumoniae, 18 h, Ciprofloxacin-resistant (21)",0.25 to 16 µg/mL
same,MIC,"Streptococcus pneumoniae; Streptococcus pneumoniae, 18 h, Ciprofloxacin-susceptible (94)",0.063 to 0.5 µg/mL
same,MIC,"Streptococcus pneumoniae; Streptococcus pneumoniae, 18 h, Erythromycin-resistant (37)",0.063 to 4 µg/mL
same,MIC,"Streptococcus pneumoniae; Streptococcus pneumoniae, 18 h, Minocycline-resistant (37)",0.063 to 4 µg/mL
same,MIC,"Streptococcus pneumoniae; Streptococcus pneumoniae, 18 h, Penicillin-resistant (19)",0.063 to 0.5 µg/mL
same,MIC50,"Streptococcus pneumoniae; Streptococcus pneumoniae, Ciprofloxacin-resistant (21), read-out: MIC50",4 µg/mL
same,MIC90,"Streptococcus pneumoniae; Streptococcus pneumoniae, Ciprofloxacin-susceptible (94)",0.25 µg/mL
same,MIC90,"Streptococcus pneumoniae; Streptococcus pneumoniae, Erythromycin-resistant (37)",0.5 µg/mL
same,MIC90,"Streptococcus pneumoniae; Streptococcus pneumoniae, Minocycline-resistant (37)",0.5 µg/mL
same,MIC90,"Streptococcus pneumoniae; Streptococcus pneumoniae, Penicillin-resistant (19)",0.25 µg/mL
same,MIC50,Proteus vulgaris; Proteus vulgaris,0.125 µg/mL
same,MIC Range,Proteus vulgaris; Proteus vulgaris (n=25),0.063 to 1 µg/mL
same,MIC90,"Proteus vulgaris; Proteus vulgaris (n=25), read-out: MIC90",0.5 µg/mL
same,MIC,Enterococcus gallinarum,0.125 µg/mL
same,MIC,"Enterococcus gallinarum; Enterococcus gallinarum (vanC1), strain TMS1, read-out: MIC",0.25 µg/mL
same,MIC,"Enterococcus gallinarum; Enterococcus gallinarum (vanC1), strain TMS2, read-out: MIC",0.5 µg/mL
same,MIC,"Enterococcus gallinarum; Enterococcus gallinarum (vanC1), strain TMS3, read-out: MIC",0.5 µg/mL
same,MIC50,"E. coli; E. coli (13 strains), quinolone-resistant, read-out: MIC50",0.063 µg/mL
same,MIC90,"E. coli; E. coli (13 strains), quinolone-resistant, read-out: MIC90",0.25 µg/mL
same,MIC,"E. coli; E. coli KU1029, mutant type SP (spontaneous mutant in the DNA gyrase)",0.063 µg/mL
same,MIC,"E. coli; E. coli KU1030, mutant type SP",0.031 µg/mL
same,MIC,"E. coli; E. coli KU1031, mutant type SP",0.031 µg/mL
same,MIC,"E. coli; E. coli KU1032, mutant type SP",0.125 µg/mL
same,MIC,"E. coli; E. coli KU1033, mutant type SP",0.031 µg/mL
same,MIC,"E. coli; E. coli KU1034, mutant type GA (DNA gyrase A)",0.25 µg/mL
same,MIC,"E. coli; E. coli KU1035, mutant type GA (DNA gyrase A)",0.25 µg/mL
same,MIC,"E. coli; E. coli KU1036, mutant type GB (DNA gyrase B)",0.031 µg/mL
same,MIC,"E. coli; E. coli KU1038, mutant type SP",0.063 µg/mL
same,MIC,"E. coli; E. coli KU1039, mutant type SP",0.063 µg/mL
same,MIC,"E. coli; E. coli KU1040, mutant type SP",≤ 0.008 µg/mL
same,MIC,"E. coli; E. coli KU1041, mutant type SP",0.25 µg/mL
same,MIC,"E. coli; E. coli KU1042, mutant type SP",0.063 µg/mL
same,MIC Range,Enterobacter aerogenes,0.016 to 0.125 µg/mL
same,MIC50,Enterobacter aerogenes; Klebsiella aerogenes,0.016 µg/mL
same,MIC90,Enterobacter aerogenes; Klebsiella aerogenes,0.063 µg/mL
same,MIC Range,Morganella morganii,0.032 to 16 µg/mL
same,MIC50,Morganella morganii; read-out: MIC50,0.063 µg/mL
same,MIC90,Morganella morganii; read-out: MIC90,0.25 µg/mL
same,MIC Range,Enterococcus faecalis; [6],0.5 - 0.5 µg/ml
same,MIC50,Enterococcus faecalis; [7],32 µg/mL
same,MIC90,Enterococcus faecalis; [7],32 µg/mL
same,MIC50,Enterococcus faecalis; [6],0.5 µg/mL
same,MIC90,Enterococcus faecalis; [6],0.5 µg/mL
same,MIC Range,Proteus mirabilis [2],0.063 to 16 µg/mL
same,MIC50,Proteus mirabilis [2]; read-out: MIC50,0.25 µg/mL
same,MIC90,Proteus mirabilis [2]; read-out: MIC90,0.5 µg/mL
same,MIC50,Klebsiella oxytoca,0.032 µg/mL
same,MIC90,Klebsiella oxytoca,4 µg/mL
same,MIC Range,Klebsiella oxytoca,≤0.008 to 16 µg/mL
same,MIC50,Shigella spp.,0.016 µg/mL
same,MIC90,Shigella spp.,0.016 µg/mL
same,MIC Range,Shigella spp.,≤0.008 to 0.032 µg/mL
same,MIC50,Citrobacter freundii; Citrobacter freundii,0.125 µg/mL
same,MIC90,Citrobacter freundii; Citrobacter freundii (n=39),2 µg/mL
same,MIC Range,Citrobacter freundii; Citrobacter freundii (n=39),0.016 to 2 µg/mL
"Cc1c(F)c(N2CCNC(C)C2)cc2c1c(=O)c(C(=O)O)cn2C1CC1 (stereo not drawn) [Grepafloxacin, grepafloxacin]",MIC,Yersinia enterocolitica; [8],0.015 to 0.25 mg/L
same,MIC,Yersinia enterocolitica; read-out: MIC (mg/L) 50%,0.03 mg/L
same,MIC,Yersinia enterocolitica; read-out: MIC (mg/L) 90%,0.03 mg/L
same,MIC90,"[3]; all (380) isolates tested (235 S. pneumoniae, 145 H. influenzae)",0.12 µg/mL
same,MIC90,[3]; all isolates tested (602),0.12 µg/mL
same,MIC50,Escherichia coli,0.06 µg/mL
same,MIC90,Escherichia coli,0.25 µg/mL
same,MIC50,Proteus mirabilis [4],0.5 µg/mL
same,MIC90,Proteus mirabilis [4],16 µg/mL
same,MIC (mg/L) Range,Aeromonas spp.,≤0.015 to 0.12 mg/L
same,MIC,Aeromonas spp.; read-out: MIC (mg/L) 50%,0.03 mg/L
same,MIC,Aeromonas spp.; read-out: MIC (mg/L) 90%,0.06 mg/L
same,MIC50,Klebsiella pneumoniae [5]; Klebsiella pneumoniae,0.125 µg/mL
same,MIC90,Klebsiella pneumoniae [5]; Klebsiella pneumoniae,1 µg/mL
same,MIC Range,Klebsiella pneumoniae [5],≤0.03 to 64 µg/mL
same,MIC,"Salmonella spp.; S. hadar(2), isolates with MICs for ciprofloxacin ≥[…], read-out: MIC",1 mg/L
same,MIC,"Salmonella spp.; S. newport(1), isolate with MIC for ciprofloxacin ≥[…], read-out: MIC",1 mg/L
same,MIC,"Salmonella spp.; S. virchow(2), isolates with MICs for ciprofloxacin ≥[…], read-out: MIC",0.25 mg/L
same,Rates of non-susceptible microorganisms,Salmonella spp.; Salmonella spp.,1%
same,MIC (mg/L) Range,Salmonella spp.; Salmonella spp. N= 106,0.03 to 2 mg/L
same,MIC,"Salmonella spp.; Salmonella, S. tshiongwe(1), isolate with MIC for ciprofloxacin ≥[…], read-out: MIC",2 mg/L
same,MIC,"Salmonella spp.; Salmonella, read-out: MIC (mg/L) 50%, Salmonella spp. N= 106",0.06 mg/L
same,MIC,"Salmonella spp.; Salmonella, read-out: MIC (mg/L) 90%, Salmonella spp. N= 106",0.25 mg/L
same,MIC,"Salmonella spp.; Salmonella, the non-susceptible Salmonella spp. isolate(s) (1% of 106), read-out: MIC",2 mg/L
same,MIC,Hafnia alvei; [8],0.015 to 0.06 mg/L
same,MIC,Hafnia alvei; read-out: MIC (mg/L) 50%,0.03 mg/L
same,MIC,Hafnia alvei; read-out: MIC (mg/L) 90%,0.06 mg/L
